The results in this text go back to patent US20090304606A1, “Method for removing debris from tooth and bone surface using irrigation solution” (priority 2006, published 2009).

The series in a line: Effect of surfactants on stability of citric acid solutions, accelerated aging on a hot plate. Type of series: physicochemical. Here is the method: In the following example, the stability of solutions containing an acid component and different surfactants (surfactants) was evaluated. Solutions of 4.4% citric acid and 0.5% surfactant were prepared. The solutions were placed in clear glass bottles, and the bottles were placed on a hot plate to approximate accelerated aging conditions. The temperature of the liquids in the bottle was about 60° C., although some variations occurred depending upon the position of the bottle.

Take POLOXAMER 237: the “Observations (stability of solution)” value is given as “Slightly cloudy after 64 days”. For POLOXAMER 407, the “Observations (stability of solution)” value is “Yellow precipitate formed at bottom”.
